US11117947B2, “Double-acylated GLP-1 derivatives” (Novo Nordisk A/S, priority 2011, dated 2021)
Read-outs that look alike come from different tables or passages of the source. Numbered stars: 1 amine (or outer) side, 2 acyl side, 3 side chain; on linkers, the order of the positions; unused ones are H or OH. Square brackets hold non-standard residues; d marks the D form. Side chains are listed from the residue outwards. Peptide text beside a SMILES is read from it. * marks the point of attachment. γGlu = O=C(O)[C@H](CCC(=O)[*:2])N[*:1]; C14 diacid = O=C(O)CCCCCCCCCCCCC(=O)*; AEEA = NCCOCCOCC(=O)O; Aib = CC(C)(N)C(=O)O

What was measured:
[1] = Estimate of oral bioavailability: gut injection in rat (caprate), exposure in plasma; type: in vivo; details: injection in jejunum, 1000 uM in 55 mg/ml sodium caprate, plasma concentration (pM) at 30 min divided by dosing solution concentration (μM), mean n=4
Procedure, shortened: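 Male Sprague Dawley rats (~240 g, n=4) received 100 μl of 1000 uM derivative in 55 mg/ml sodium caprate by catheter into proximal or mid jejunum. Tail-vein EDTA plasma was sampled up to 240 min. Peptide was quantified by two-antibody bead chemiluminescence immunoassay, giving mean concentration-time profiles (pmol/l).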

[2] = molecular target: T1, human GLP-1 receptor (Homo sapiens, UniProt P43220); experiment: GLP-1 receptor binding: displacement of 125I-GLP-1 (SPA) at low and high albumin; details: for Ratio [(IC50/nM) high HSA]/[(IC50/nM) low HSA]: 2.0% HSA vs 0.001% HSA
T1 construct: expressed in transfected cells; membranes
T1 sequence (P43220 24-463): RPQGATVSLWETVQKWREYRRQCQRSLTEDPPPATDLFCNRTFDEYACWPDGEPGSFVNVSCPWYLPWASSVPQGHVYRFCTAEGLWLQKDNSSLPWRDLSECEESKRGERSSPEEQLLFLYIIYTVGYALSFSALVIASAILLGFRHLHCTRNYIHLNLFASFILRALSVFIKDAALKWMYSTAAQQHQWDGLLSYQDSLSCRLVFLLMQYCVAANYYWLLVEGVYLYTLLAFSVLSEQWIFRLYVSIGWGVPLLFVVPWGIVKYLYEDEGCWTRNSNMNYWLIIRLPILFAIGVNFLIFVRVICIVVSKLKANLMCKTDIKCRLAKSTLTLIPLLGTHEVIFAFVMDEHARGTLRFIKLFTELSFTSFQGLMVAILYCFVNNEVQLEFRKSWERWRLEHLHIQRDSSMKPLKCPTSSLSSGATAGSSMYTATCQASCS
Procedure, shortened: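 Membranes from hamster cells stably transfected with the receptor, with WGA SPA beads and 0.06 nM [^125I]-GLP-1(7-36)NH2, incubated 120 min at 30 °C with shaking.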

[3] = low albumin, 0.001% HSA, read-out: IC50/nM (low HSA)

Dose-corrected exposure at 30 min [1] | Ratio [(IC50/nM) high HSA]/[(IC50/nM) low HSA] [2] | IC50 [2, 3] [nM] | IC50 ([2]; high albumin, 2.0% HSA, read-out: IC50/nM (high HSA)) [nM] | SMILES
65 | 157 | 0.38 | – | CC[C@H](C)[C@H](NC(=O)[C@H](Cc1ccccc1)NC(=O)[C@H](CCCCNC(=O)COCCOCCNC(=O)COCCOCCNC(=O)CC[C@H](NC(=O)CCCCCCCCCCCCC(=O)O)C(=O)O)NC(=O)[C@H](CCCNC(=N)N)NC(=O)[C@@H](NC(=O)[C@H](C)NC(=O)[C@H](CCC(N)=O)NC(=O)[C@H](CCCCNC(=O)COCCOCCNC(=O)COCCOCCNC(=O)CC[C@H](NC(=O)CCCCCCCCCCCCC(=O)O)C(=O)O)NC(=O)[C@H](CCC(=O)O)NC(=O)[C@H](CC(C)C)NC(=O)[C@H](Cc1ccc(O)cc1)NC(=O)[C@H](CO)NC(=O)[C@H](CO)NC(=O)[C@@H](NC(=O)[C@H](CC(=O)O)NC(=O)[C@H](CO)NC(=O)[C@@H](NC(=O)[C@H](Cc1ccccc1)NC(=O)[C@@H](NC(=O)CNC(=O)[C@H](CCC(=O)O)NC(=O)C(C)(C)NC(=O)[C@@H](N)Cc1c[nH]cn1)[C@@H](C)O)[C@@H](C)O)C(C)C)C(C)C)C(=O)N[C@@H](C)C(=O)N[C@@H](Cc1c[nH]c2ccccc12)C(=O)N[C@@H](CC(C)C)C(=O)N[C@H](C(=O)N[C@@H](CCCNC(=N)N)C(=O)NCC(=O)O)C(C)C [Example 9, N^ε22-[2-[2-[2-[[2-[2-[2-[[(4S)-4-carboxy-4-(13-carboxytridecanoylamino)butanoyl]amino]ethoxy]ethoxy]acetyl]amino]ethoxy]ethoxy]acetyl],N^ε27-[2-[2-[2-[[2-[2-[2-[[(4S)-4-carboxy-4-(13-carboxytridecanoylamino)butanoyl]amino]ethoxy]ethoxy]acetyl]amino]ethoxy]ethoxy]acetyl]-Aib^8,Lys^22,Val^25,Arg^26,Lys^27,Arg^34l-GLP-1-(7-35)-peptide] (H-H[Aib]EGTFTSDVSSYLEK([AEEA-AEEA-γGlu-C14 diacid])QAVRK([AEEA-AEEA-γGlu-C14 diacid])FIAWLVRG-OH)
98 | 155 | 0.19 | 29 | CC[C@H](C)[C@H](NC(=O)[C@H](Cc1ccccc1)NC(=O)[C@H](CCCCNC(=O)COCCOCCNC(=O)COCCOCCNC(=O)CC[C@H](NC(=O)CCCCCCCCCCCCC(=O)O)C(=O)O)NC(=O)[C@H](CCCNC(=N)N)NC(=O)[C@@H](NC(=O)[C@H](C)NC(=O)[C@H](CCC(N)=O)NC(=O)CNC(=O)[C@H](CCC(=O)O)NC(=O)[C@H](CC(C)C)NC(=O)[C@H](Cc1ccc(O)cc1)NC(=O)[C@H](CO)NC(=O)[C@H](CO)NC(=O)[C@@H](NC(=O)[C@H](CC(=O)O)NC(=O)[C@H](CO)NC(=O)[C@@H](NC(=O)[C@H](Cc1ccccc1)NC(=O)[C@@H](NC(=O)CNC(=O)[C@H](CCC(=O)O)NC(=O)C(C)(C)NC(=O)[C@@H](N)Cc1c[nH]cn1)[C@@H](C)O)[C@@H](C)O)C(C)C)C(C)C)C(=O)N[C@@H](C)C(=O)N[C@@H](Cc1c[nH]cn1)C(=O)N[C@@H](CC(C)C)C(=O)N[C@H](C(=O)N[C@@H](CCC(N)=O)C(=O)NCC(=O)N[C@@H](CCCNC(=N)N)C(=O)N[C@@H](CCCCNC(=O)COCCOCCNC(=O)COCCOCCNC(=O)CC[C@H](NC(=O)CCCCCCCCCCCCC(=O)O)C(=O)O)C(=O)O)C(C)C [Example 15, N^ε27-[2-[2-[2-[[2-[2-[2-[[(4S)-4-carboxy-4-(13-carboxytridecanoylamino)butanoyl]amino]ethoxy]ethoxy]acetyl]amino]ethoxy]ethoxy]acetyl], N^ε37-[2-[2-[2-[[2-[2-[2-[[(4S)-4-carboxy-4-(13-carboxytridecanoylamino)butanoyl]amino]ethoxy]ethoxy]acetyl]amino]ethoxy]ethoxy]acetyl]-[Aib^8,Val^25,Arg^26,Lys^27,His^31,Gln^34,Lys^37]-GLP-1-(7-37)-peptide] (H-H[Aib]EGTFTSDVSSYLEGQAVRK([AEEA-AEEA-γGlu-C14 diacid])FIAHLVQGRK([AEEA-AEEA-γGlu-C14 diacid])-OH)
115 | – | 0.2 | – | CC[C@H](C)[C@H](NC(=O)[C@H](Cc1ccccc1)NC(=O)[C@H](CCCCNC(=O)COCCOCCNC(=O)COCCOCCNC(=O)CC[C@H](NC(=O)CCCCCCCCCCCCC(=O)O)C(=O)O)NC(=O)[C@H](CCCNC(=N)N)NC(=O)[C@@H](NC(=O)[C@H](C)NC(=O)[C@H](CCC(N)=O)NC(=O)CNC(=O)[C@H](CCC(=O)O)NC(=O)[C@H](CC(C)C)NC(=O)[C@H](Cc1ccc(O)cc1)NC(=O)[C@H](CO)NC(=O)[C@H](CO)NC(=O)[C@@H](NC(=O)[C@H](CC(=O)O)NC(=O)[C@H](CO)NC(=O)[C@@H](NC(=O)[C@H](Cc1ccccc1)NC(=O)[C@@H](NC(=O)CNC(=O)[C@H](CCC(=O)O)NC(=O)[C@H](C)NC(=O)[C@@H](N)Cc1c[nH]cn1)[C@@H](C)O)[C@@H](C)O)C(C)C)C(C)C)C(=O)N[C@@H](C)C(=O)N[C@@H](Cc1c[nH]cn1)C(=O)N[C@@H](CC(C)C)C(=O)N[C@H](C(=O)N[C@@H](CCC(N)=O)C(=O)NCC(=O)N[C@@H](CCCNC(=N)N)C(=O)N[C@@H](CCCCNC(=O)COCCOCCNC(=O)COCCOCCNC(=O)CC[C@H](NC(=O)CCCCCCCCCCCCC(=O)O)C(=O)O)C(=O)O)C(C)C [Example 16, N^ε27-[2-[2-[2-[[2-[2-[2-[[(4S)-4-carboxy-4-(13-carboxytridecanoylamino)butanoyl]amino]ethoxy]ethoxy]acetyl]amino]ethoxy]ethoxy]acetyl], N^ε37-[2-[2-[2-[[2-[2-[2-[[(4S)-4-carboxy-4-(13-carboxytridecanoylamino)butanoyl]amino]ethoxy]ethoxy]acetyl]amino]ethoxy]ethoxy]acetyl]-[Val^25,Arg^26,Lys^27,His^31,Gln^34,Lys^37]-GLP-1-(7-37)-peptide] (H-HAEGTFTSDVSSYLEGQAVRK([AEEA-AEEA-γGlu-C14 diacid])FIAHLVQGRK([AEEA-AEEA-γGlu-C14 diacid])-OH; N-terminus and C-terminus assumed)
99 | 174 | – | – | CC[C@H](C)[C@H](NC(=O)[C@H](Cc1ccccc1)NC(=O)[C@H](CCCCNC(=O)COCCOCCNC(=O)COCCOCCNC(=O)CC[C@H](NC(=O)CCCCCCCCCCCCC(=O)O)C(=O)O)NC(=O)[C@H](CCCNC(=N)N)NC(=O)[C@@H](NC(=O)[C@H](C)NC(=O)[C@H](CCC(N)=O)NC(=O)[C@H](CCCCNC(=O)COCCOCCNC(=O)COCCOCCNC(=O)CC[C@H](NC(=O)CCCCCCCCCCCCC(=O)O)C(=O)O)NC(=O)[C@H](CCC(=O)O)NC(=O)[C@H](CC(C)C)NC(=O)[C@H](Cc1ccc(O)cc1)NC(=O)[C@H](CO)NC(=O)[C@H](CO)NC(=O)[C@@H](NC(=O)[C@H](CC(=O)O)NC(=O)[C@H](CO)NC(=O)[C@@H](NC(=O)[C@H](Cc1ccccc1)NC(=O)[C@@H](NC(=O)CNC(=O)[C@H](CCC(=O)O)NC(=O)C(C)(C)NC(=O)[C@@H](N)Cc1c[nH]cn1)[C@@H](C)O)[C@@H](C)O)C(C)C)C(C)C)C(=O)N[C@@H](C)C(=O)N[C@@H](Cc1c[nH]cn1)C(=O)N[C@@H](CC(C)C)C(=O)N[C@H](C(=O)N[C@@H](CCCNC(=N)N)C(=O)NCC(=O)N[C@@H](CCCNC(=N)N)C(=O)NCC(=O)O)C(C)C [Example 7, N^ε22-[2-[2-[2-[[2-[2-[2-[[(4S)-4-carboxy-4-(13-carboxytridecanoylamino)butanoyl]amino]ethoxy]ethoxy]acetyl]amino]ethoxy]ethoxy]acetyl],N^ε27-[2-[2-[2-[[2-[2-[2-[[(4S)-4-carboxy-4-(13-carboxytridecanoylamino)butanoyl]amino]ethoxy]ethoxy]acetyl]amino]ethoxy]ethoxy]acetyl]-[Aib^8,Lys^22,Val^25,Arg^26,Lys^27,His^31,Arg^34]-GLP-1-(7-37)-peptide] (H-H[Aib]EGTFTSDVSSYLEK([AEEA-AEEA-γGlu-C14 diacid])QAVRK([AEEA-AEEA-γGlu-C14 diacid])FIAHLVRGRG-OH)
